Laboratory results published in patent US10856562B2, “Flavor composition and edible compositions containing same” (MARS, INCORPORATED, priority 2013, dated 2020).
“Also recorded” adds a separate entry of the source. Square brackets hold non-standard residues; d marks the D form. Ends that are not written are not given here. pGlu = O=C1CC[C@@H](C(=O)O)N1

How the values were obtained:
panelists = test: Descriptive profile (Spectrum method) of peptide in 0.2% NaCl solution, in-mouth; type: in vivo, human; details: for Astringent, in-mouth perception / Bitter, in-mouth perception / Flinty/Mineral, in-mouth perception / Metallic, in-mouth perception / Numbing, in-mouth perception / Salt, in-mouth perception (mean salt perception in-mouth) / Sour, in-mouth perception / Sweet, in-mouth perception: mean score, 15-point scale
Method: Descriptive Profiles (Flavor and Chemical Feeling Factors) of five use levels of a pGlu-Val-Leu flavor composition were determined using the Spectrum™ method. The five use levels were as follows: 0.1 ppb, 0.5 ppb, 1.0 ppb, 10.0 ppb and 40.0 ppb.
Data was collected for the flavor and chemical feeling factors of the product in-mouth for each of the five use levels according to the following protocol. One replication was collected for the flavor and chemical feeling factors of the product in-mouth. 6-9 panelists evaluated per session.
2. Each panelist tasted a test sample (0.1 ppb, 0.5 ppb, 1.0 ppb, 10.0 ppb or 40.0 ppb all in 0.2% NaCl solution). Only one sample was tasted per session.
Descriptive attributes (e.g., taste, flavor and chemical feeling factors) of six use levels of pGlu-Val-Leu (SE-13), pGlu-Val (SE-14) and pGlu-Val-Val (SE-17) flavor composition peptides were determined. The six use levels were as follows: 0.1 ppb, 0.5 ppb, 1.0 ppb, 10.0 ppb, 40.0 ppb and 50.0 ppb.
Data was collected for the attributes of the product in-mouth for the use levels according to the following protocol: • The samples were analyzed for flavor and aftertaste by six-nine members of a panel, trained and experienced in appearance, flavor and texture evaluation using the Spectrum™ method. Samples in solution were evaluated across multiple panel sessions. • The strength of each attribute was rated on a 15-point scale, where 0=none and 15=very strong. • This scale incorporates the ability to use tenths of a point and therefore has the potential of 150 scale differentiations. • The scale may be expanded beyond 15 points to include extreme ratings if necessary.
Attribute Perception Protocol • The panelists evaluated each sample using the following procedure • Descriptive Profiles (flavor and chemical feeling factors) of 5 levels of salt enhancing solutions • Individual data was collected for the flavor and chemical feeling factors of the product in-mouth • Increased Salt Perception Protocol • Each panelist tasted salt 5 reference (0.35% salt solution)—to ground themselves on salt intensity of 5.0. • Each panelist tasted the test sample (0.1 ppb, 0.5 ppb, 1.0 ppb, 10.0 ppb or 40.0/50.0 ppb all in 0.2% NaCl solution: only one per session) • Each panelist then re-tasted the salt 5 reference and rated it for salt intensity as well as any other basic taste, chemical feeling factor, or aromatic perceived. This captured any increased salt perception indicated by the test sample as well as any other perceptions present. • Return to Baseline Protocol • After evaluating the sample for salt & other perceptions, panelists re-tasted the salt 5 reference at 1 minute intervals until their perception of the salt 5 saltiness intensity had returned to 5.0. Each panelist recorded their salt intensity at each interval and took qualitative notes on other perceptions seen in aftertaste. Sample Preparation
The 0.1, 0.5, 1.0 10, 40, and 50 ppb test samples of the flavor composition peptides were prepared in water as described in table 4.
The panelists evaluated each sample for the attributes described in table 5.

panel of trained tasters = test: Saltiness of sodium-reduced pasta sauce with peptides, panel of trained tasters; type: in vivo, human; details: 10 ppb of UE-30
Method: Food product compositions were prepared by admixing flavor composition peptide(s) of the present application with food compositions, wherein the level of sodium (NaCl) in the food product compositions was reduced. The level of sodium was reduced by 25%, 50% or 75% compared to food products compositions that were not admixed with flavor composition peptides. The food product compositions comprising the flavor composition peptides were tasted by a panel of trained tasters and the level of saltiness was compared to the control food products.
The peptides pGlu-Val-Leu (identified as “SE-13”), pGlu-Val-Cys (identified as “UE-30”) and pGlu-Val-Val (identified as “SE-17”) were tested in Pasta Sauce. The control pasta sauce comprised 540 mg sodium (NaCl) in a 125 g serving.

Substance: [pGlu]-Val [SE-14]
- Astringent, in-mouth perception (panelists; 0.1 ppb in 0.2% NaCl): 0.0
- Bitter, in-mouth perception (panelists; 0.1 ppb in 0.2% NaCl): 0.0
- Flinty/Mineral, in-mouth perception (panelists; 0.1 ppb in 0.2% NaCl): 0.8
- Metallic, in-mouth perception (panelists; 0.1 ppb in 0.2% NaCl): 0.3
- Numbing, in-mouth perception (panelists; 0.1 ppb in 0.2% NaCl): 0.0
- Salt, in-mouth perception (mean salt perception in-mouth) (panelists; 0.1 ppb in 0.2% NaCl): 1.8
- Sour, in-mouth perception (panelists; 0.1 ppb in 0.2% NaCl): 0.0
- Sweet, in-mouth perception (panelists; 0.1 ppb in 0.2% NaCl): 0.0
- Level of the aromatics, basic tastes and chemical feeling factors in-mouth with increasing concentration (panelists; 0.1 to 40.0/50.0 ppb): does not increase
- Salt perception in-mouth as the concentration increases (panelists; 0.1 to 40.0/50.0 ppb in 0.2% NaCl): increases slightly; also recorded: slight increase
- Astringent, in-mouth perception (panelists; 0.5 ppb in 0.2% NaCl): 0.1
- Bitter, in-mouth perception (panelists; 0.5 ppb in 0.2% NaCl): 0.0
- Flinty/Mineral, in-mouth perception (panelists; 0.5 ppb in 0.2% NaCl): 0.6
- Metallic, in-mouth perception (panelists; 0.5 ppb in 0.2% NaCl): 0.1
- Numbing, in-mouth perception (panelists; 0.5 ppb in 0.2% NaCl): 0.0
- Salt, in-mouth perception (mean salt perception in-mouth) (panelists; 0.5 ppb in 0.2% NaCl): 2.5
- Sour, in-mouth perception (panelists; 0.5 ppb in 0.2% NaCl): 0.0
- Sweet, in-mouth perception (panelists; 0.5 ppb in 0.2% NaCl): 0.0
- Astringent, in-mouth perception (panelists; 1.0 ppb in 0.2% NaCl): 0.1
- Bitter, in-mouth perception (panelists; 1.0 ppb in 0.2% NaCl): 0.0
- Flinty/Mineral, in-mouth perception (panelists; 1.0 ppb in 0.2% NaCl): 0.9
- Metallic, in-mouth perception (panelists; 1.0 ppb in 0.2% NaCl): 0.1
- Numbing, in-mouth perception (panelists; 1.0 ppb in 0.2% NaCl): 0.0
- Salt, in-mouth perception (mean salt perception in-mouth) (panelists; 1.0 ppb in 0.2% NaCl): 2.9
- Sour, in-mouth perception (panelists; 1.0 ppb in 0.2% NaCl): 0.0
- Sweet, in-mouth perception (panelists; 1.0 ppb in 0.2% NaCl): 0.0
- Astringent, in-mouth perception (panelists; 10.0 ppb in 0.2% NaCl): 0.0
- Bitter, in-mouth perception (panelists; 10.0 ppb in 0.2% NaCl): 0.0
- Flinty/Mineral, in-mouth perception (panelists; 10.0 ppb in 0.2% NaCl): 0.9
- Metallic, in-mouth perception (panelists; 10.0 ppb in 0.2% NaCl): 0.3
- Numbing, in-mouth perception (panelists; 10.0 ppb in 0.2% NaCl): 0.0
- Salt, in-mouth perception (mean salt perception in-mouth) (panelists; 10.0 ppb in 0.2% NaCl): 3.3
- Sour, in-mouth perception (panelists; 10.0 ppb in 0.2% NaCl): 0.0
- Sweet, in-mouth perception (panelists; 10.0 ppb in 0.2% NaCl): 0.0
- Astringent, in-mouth perception (panelists; 50.0 ppb in 0.2% NaCl): 0.0
- Bitter, in-mouth perception (panelists; 50.0 ppb in 0.2% NaCl): 0.0
- Flinty/Mineral, in-mouth perception (panelists; 50.0 ppb in 0.2% NaCl): 0.7
- Metallic, in-mouth perception (panelists; 50.0 ppb in 0.2% NaCl): 0.2
- Numbing, in-mouth perception (panelists; 50.0 ppb in 0.2% NaCl): 0.0
- Salt, in-mouth perception (mean salt perception in-mouth) (panelists; 50.0 ppb in 0.2% NaCl): 3.2
- Sour, in-mouth perception (panelists; 50.0 ppb in 0.2% NaCl): 0.0
- Sweet, in-mouth perception (panelists; 50.0 ppb in 0.2% NaCl): 0.0
- Umami like swelling of lips and tongue, in-mouth (panelists; all levels): Some panelists also experience Umami like swelling of lips and tongue
- Umami like feeling factor of lip and tongue swelling (panelists; both in-mouth and after expectoration): Shows umami like feeling factor of lip and tongue swelling

Substance: [pGlu]-Val-Cys [UE-30]
- Off-taste (panel of trained tasters): had a metallic taste
